Experimental data from patent publication US7141564B2, “Nitrogen-containing bicyclic heterocycles for use as antibacterials” (priority 2001, dated 2006).
Where a name gives a salt, the structure may show the parent alone.

Test: MIC of test compounds against various organisms
Format: cell-based
Details: versus all these organisms (panel of 10 strains); read-out: MIC

`COc1ccc2nccc(NC(=O)[C@H]3CC[C@H](NCc4ccc5nsnc5c4)CC3)c2n1` [Example 2, Trans-4-[(Benzo[1,2,5]thiadiazol-5-ylmethyl)-amino]-cyclohexanecarboxylic acid (6-methoxy-[1,5]naphthyridin-4-yl)-amide fumarate salt] and `COc1ccc2nccc(NC(=O)[C@H]3CC[C@H](NCc4ccc5scnc5c4)CC3)c2n1` [Example 25, Trans-4-[(Benzothiazol-5-ylmethyl)-amino]cyclohexanecarboxylic acid(6-methoxy-[1,5]naphthyridine-4-yl)amide oxalate salt] cannot be ordered by MIC: no more than 4 µg/mL for the first, no more than 64 µg/mL for the second.

`COc1ccc2nccc(NC(=O)[C@H]3CC[C@H](NCc4cc5cccc(O)c5c(=O)[nH]4)CC3)c2n1` [Example 17, Trans-4-[(8-Hydroxy-1-oxo-1,2-dihydro-isoquinolin-3-ylmethyl)-amino]-cyclohexanecarboxylic acid (6-methoxy-[1,5]naphthyridin-4-yl)-amide dihydrochloride salt] and `COc1ccc2nccc(NC(=O)[C@H]3CC[C@H](NCc4cc5cccnc5[nH]4)CC3)c2n1` [Example 3, Trans-4-[(1H-Pyrrolo[2,3-b]pyridin-2-ylmethyl)-amino]-cyclohexanecarboxylic acid (6-methoxy-[1,5]naphthyridin4-yl)-amide fumarate salt] cannot be ordered by MIC: no more than 16 µg/mL for the first, no more than 4 µg/mL for the second.

`COc1cc(F)c2nccc(NC(=O)[C@]3(O)CC[C@@H](NCc4ccc5c(n4)NC(=O)CS5)CC3)c2c1` [Example 390, 1-Hydroxy-t-4-[(3-oxo-3,4-dihydro-2H-pyrido[3,2-b][1,4]thiazin-6-ylmethyl)-amino-r-cyclohexanecarboxylic acid (8-fluoro-6-methoxy-quinolin-4-yl)-amidedihydrochloride] and `COc1ccc2nccc(NC(=O)[C@]3(O)CC[C@@H](NCc4ccc5c(n4)NC(=O)CS5)CC3)c2c1` [Example 391, 1-Hydroxy-t-4-[(3-oxo-3,4-dihydro-2H-pyrido[3,2-b][1,4]thiazin-6-ylmethyl)-amino-r-cyclohexanecarboxylic acid (6-methoxy-quinolin-4-yl)-amidedihydrochloride] cannot be ordered by MIC: no more than 4 µg/mL for the first, no more than 4 µg/mL for the second.

`COc1ccc2nccc(C(O)C[C@H]3CC[C@H](NCc4ccc5c(c4)OCCO5)CC3)c2c1` (stereo partly drawn) [Example 22, Trans-2-{4-[(2,3-Dihydro-benzo[1,4]dioxin-6-ylmethyl)-amino]-cyclohexyl}-1-(6-methoxy-quinolin-4-yl)-ethanol oxalate salt] and `NCCCOc1ccc2nccc(NC(=O)[C@H]3CC[C@H](NCc4ccc5c(c4)OCCO5)CC3)c2n1` [Example 29, Trans-4-[(2,3-Dihydro-benzo[1,4]dioxin-6-ylmethyl)-amino]-cyclohexanecarboxylic acid [6-(3-amino-propoxy)-[1,5]naphthyridin-4-yl]-amide dioxalate] cannot be ordered by MIC: no more than 16 µg/mL for the first, no more than 16 µg/mL for the second.

`COc1ccc2nccc(NC(=O)[C@H]3CC[C@H](NCc4ccc5c(c4)oc(=O)n5C)CC3)c2n1` [Example 7, Trans-4-[(3-Methyl-2-oxo-2,3-dihydro-benzooxazol-6-ylmethyl)-amino]-cyclohexanecarboxylic acid (6-methoxy-[1,5]naphthyridin-4-yl)-amide oxalate salt] and `COc1ccc2nccc(NC(=O)[C@H]3CC[C@H](NCc4ccc5c(c4)NC(=O)CS5)CC3)c2n1` [Example 4, Trans-4-[(3-Oxo-3,4-dihydro-2H-benzo[1,4]thiazin-6-ylmethyl)-amino]-cyclohexane carboxylic acid (6-methoxy-[1,5]naphthyridin-4-yl)-amide fumarate salt] cannot be ordered by MIC: no more than 64 µg/mL for the first, no more than 4 µg/mL for the second.

`COc1ccc2nccc(NC(=O)[C@]3(O)CC[C@@H](NCc4ccc5c(c4)NC(=O)CS5)CC3)c2n1` [Example 300, 1-Hydroxy-t-4-[(3-oxo-3,4-dihydro-2H-benzo[1,4]thiazin-6-ylmethyl)-amino]-r-cyclohexanecarboxylic Acid (6-methoxy-[1,5]naphthyridin-4-yl)-amide Dihydrochloride] and `COc1ccc2nccc(NC(=O)[C@]3(O)CC[C@@H](NCc4cnc5c(c4)NC(=O)CS5)CC3)c2n1` [Example 303, 1-Hydroxy-t-4-[(2-oxo-2,3-dihydro-1H-pyrido[2,3-b][1,4]thiazin-7-ylmethyl)-amino]-r-cyclohexanecarboxylic Acid (6-methoxy-[1,5]naphthyridin-4-yl)-amide Dihydrochloride] cannot be ordered by MIC: no more than 4 µg/mL for the first, no more than 4 µg/mL for the second.

`COc1ccc2nccc(NC(=O)[C@]3(O)CC[C@@H](NCc4ccc5c(n4)NC(=O)CO5)CC3)c2n1` [Example 305, 1-Hydroxy-t-4-[(3-oxo-3,4-dihydro-2H-pyrido[3,2-b][1,4]oxazin-6-ylmethyl)-amino]-r-cyclohexanecarboxylic Acid (6-methoxy-[1,5]naphthyridin-4-yl)-amide Dihydrochloride] and `COc1ccc2nccc(NC(=O)[C@H]3CC[C@H](NCc4ccc5c(n4)NC(=O)CO5)CC3)c2n1` [Example 31, Trans-4-[(3-Oxo-3,4-dihydro-2H-pyrido[3,2-b][1,4]oxazin-6-ylmethyl)-amino]-cyclohexanecarboxylic acid (6-methoxy-[1,5]naphthyridin-4-yl)-amide oxalate] cannot be ordered by MIC: no more than 4 µg/mL for the first, no more than 4 µg/mL for the second.

`COc1ccc2nccc(NC(=O)[C@]3(O)CC[C@@H](NCc4cc5c(cn4)SCC(=O)N5)CC3)c2n1` [Example 302, 1-Hydroxy-t-4-[(2-oxo-2,3-dihydro-1H-pyrido[3,4-b][1,4]thiazin-7-ylmethyl)-amino]-r-cyclohexanecarboxylic Acid (6-methoxy-[1,5]naphthyridin-4-yl)-amide Dihydrochloride] and `COc1ccc2nccc(NC(=O)[C@H]3CC[C@H](NCc4cc5c(cc4F)SCC(=O)N5)CC3)c2n1` [Example 34, Trans-4-[(7-Fluoro-3-oxo-3,4-dihydro-2H-benzo[1,4]thiazin-6-ylmethyl)-amino]-cyclohexanecarboxylic acid (6-methoxy-[1,5]naphthyridin-4-yl)-amide oxalate salt] cannot be ordered by MIC: no more than 4 µg/mL for the first, no more than 4 µg/mL for the second.

`COc1ccc2nccc(NC(=O)C3=CCC(NCc4cc5c(cc4F)OCC(=O)N5)CC3)c2n1` (racemic) [Example 154, (R/S)-4-[(7-Fluoro-3-oxo-3,4-dihydro-2H-benzo[1,4]oxazin-6-ylmethyl)-amino]-cyclohex-1-ene carboxylic acid (6-methoxy-[1,5]naphthyridin-4-yl)-amide oxalate] and `COc1ccc2nccc(NC(=O)C3=CCC(NCc4cnc5c(c4)NC(=O)CO5)CC3)c2n1` (racemic) [Example 155, (R/S)-4-[(2-Oxo-2,3-dihydro-1H-pyrido[2,3-b][1,4]oxazin-7-ylmethyl)-amino]-cyclohex-1-enecarboxylic Acid (6-methoxy-[1,5]naphthyridin-4-yl)-amide oxalate] cannot be ordered by MIC: no more than 4 µg/mL for the first, no more than 16 µg/mL for the second.

`COc1ccc2nccc(NC(=O)[C@H]3CC[C@H](NCc4cc5c(cc4F)OCC(=O)N5)CC3)c2n1` [Example 9] and `COc1ccc2nccc(NC(=O)[C@H]3CC[C@H](NCc4cc(N)c5c(c4)NC(=O)CO5)CC3)c2n1` [Example 36, Trans-4-[(8-Amino-3-oxo-3,4-dihydro-2H-benzo[1,4]oxazin-6-ylmethyl)-amino]-cyclohexanecarboxylic acid (6-methoxy)-[1,5]naphthyridin-4-yl)-amide Oxalate] cannot be ordered by MIC: no more than 4 µg/mL for the first, no more than 64 µg/mL for the second.

`COc1ccc2nccc(NC(=O)[C@H]3CC[C@H](NCc4ccc5c(n4)OCCO5)CC3)c2n1` [Example 18, Trans-4-[(2,3-Dihydro-[1,4]dioxino[2,3-b]pyridin-6-ylmethyl)-amino]-cyclohexanecarboxylic acid (6-methoxy-[1,5]naphthyridin-4-yl)-amide oxalate salt] and `COc1ccc2nccc(NC(=O)[C@H]3CC[C@H](NCc4cc5c(cn4)OCCO5)CC3)c2n1` [Example 19, Trans-4-[(2,3-Dihydro-[1,4]dioxino[2,3-c]pyridin-7-ylmethyl)-amino]-cyclohexanecarboxylic acid (6-methoxy-[1,5]naphthyridin-4-yl)-amide oxalate salt] cannot be ordered by MIC: no more than 64 µg/mL for the first, no more than 4 µg/mL for the second.

`COc1ccc2nccc(NC(=O)[C@H]3CC[C@H](NCc4cnc5scnc5c4)CC3)c2n1` [Example 16, Trans-4-[(Thiazolo[5,4-b]-pyridin-6-ylmethyl)-amino]-cyclohexanecarboxylic acid (6-methoxy-[1,5]naphthyridin-4-yl)-amide oxalate salt] and `COc1ccc2nccc(NC(=O)[C@H]3CC[C@H](NCc4cnc5c(c4)OCCO5)CC3)c2n1` [Example 20, Trans-4-[(2,3-Dihydro-[1,4]dioxino[2,3-b]pyridin-7-ylmethyl)-amino]-cyclohexanecarboxylic acid (6-methoxy-[1,5]naphthyridin-4-yl)-amide oxalate salt] cannot be ordered by MIC: no more than 16 µg/mL for the first, no more than 4 µg/mL for the second.

`COc1ccc2nccc(NC(=O)[C@H]3CC[C@H](NCc4cc5c(c([N+](=O)[O-])c4)OCC(=O)N5)CC3)c2n1` [Example 35, Trans-4-[(8-Nitro-3-oxo-3,4-dihydro-2H-benzo[1,4]oxazin-6-ylmethyl)-amino]-cyclohexanecarboxylic Acid (6-methoxy)-[1,5]naphthyridin-4-yl)-amide Oxalate] and `COc1ccc2nccc(NC(=O)[C@H]3CC[C@H](NCc4ccc5c(c4)NCCO5)CC3)c2n1` [Example 15, Trans-4-[(3,4-Dihydro-2H-benzo[1,4]oxazin-6-ylmethyl)-amino]-cyclohexanecarboxylic acid (6-methoxy-[1,5]naphthyridin-4-yl)-amide oxalate salt] cannot be ordered by MIC: no more than 4 µg/mL for the first, no more than 16 µg/mL for the second.

`COc1ccc2nccc(NC(=O)[C@H]3CC[C@H](NCc4cc5c(cc4[N+](=O)[O-])OCO5)CC3)c2n1.O=C(O)C(=O)O` [Example 23, Trans-4-[(6-Nitro-benzo[1,3]dioxol-5-ylmethyl)-amino]-cyclohexanecarboxylic acid (6-methoxy-[1,5]naphthyridin-4-yl)-amide oxalate salt] and `COc1ccc2nccc(NC(=O)C3=CCC(NCc4cnc5c(c4)NC(=O)CS5)CC3)c2n1` (racemic) [Example 153, (R/S)-4-[(2-Oxo-2,3-dihydro-1H-pyrido[2,3-b][1,4]thiazin-7-ylmethyl)-amino]-cyclohex-1-ene carboxylic acid (6-methoxy-[1,5]naphthyridin-4-yl)-amide oxalate] cannot be ordered by MIC: no more than 4 µg/mL for the first, no more than 4 µg/mL for the second.
